In US7745152B2, “Method for determining genotoxicity” (priority 2004, dated 2010):
“And” between values parts separate entries of the source, which are not always exact repeats. Equal entries are not always repeated.

How the values were obtained:
[1] = system: C2C12 cells
Protocol: (§1) Three independent replicates were generated for each drug and time point. Sample processing was carried out according to protocols described in the Affymetrix Expression Analysis Technical Manual. Briefly, total RNA was isolated from cells by the acid guanidinium thiocyanate-phenol-chloroform extraction method (Trizol®, Invitrogen, Carlsbad, Calif.). Twice purified poly(A+) RNA was isolated and reverse transcribed using a T7-promoter coupled oligo(dT) primer, followed by in vitro transcription. The labeled samples were applied to the Affymetrix Murine Genome MOE430 set and were hybridized overnight at 45° C./60 rpm, washed using a FS450 Fluidics station, and scanned on a GS3000 scanner. The resulting image files were analyzed using Affymetrix software (Microarray Analysis Suite version 5.0).
(§2) To measure the effect of drug treatment on cellular gene expression, replicate data obtained from each drug and time point were compared with replicates for vehicle-matched controls using the Student t-test. The gene expression levels were Log transformed before applying the Student t-test. The fold change of the average expression level between the control and drug-treated cells was also calculated. […] A gene was considered expressed if the Affymetrix software determined that the gene was “present” in two out of the three replicates. This ensured that true expression changes were identified, and could be distinguished from background variability. Second, the calculated expression change for each of five tested drugs was at least 2 fold, and the calculated p-value for the expression change using the Student t-test was less than 0.01.

[2] = system: C2C12 cells; settings: mouse
[3] = system: C2C12 cells; assay: Genomic assay: gene expression analysis (Affymetrix Murine Genome MOE430) in C2C12 cells induced to differentiate
Protocol: as §1, §2

[4] = system: C2C12 cells; assay: C2C12 myogenic differentiation after MMS exposure with siRNA transfection; settings: 75 μM MMS, 24 hours, then differentiation media, 72 hours

COS(C)(=O)=O [Methanesulfonate methyl ester (MMS), Methanesulfonate methyl ester] was tested, and the “Fold change in expression: Ephx1, Epoxide hydrolase 1 (microsomal xenobiotic hydrolase)” value [1] was 2.10 fold, the “Fold change in expression: Hgf, Hepatocyte growth factor (scatter factor)” value [1] was 2.20 fold and the Lowest effective dose [2] was 0.002 µg/mL. The “Fold change in expression: 0610013D04 Rik, RIKEN cDNA” value [3] was 2.60 fold, the “Fold change in expression: 1600013K19 Rik, RIKEN cDNA” value [3] was 0.62 fold and the “Fold change in expression: 2610005B21 Rik, RIKEN cDNA” value [3] was 0.53 fold. The “Fold change in expression: 2610019I03 RIK, RIKEN cDNA” value [3] was 0.43 fold, the “Fold change in expression: 2610509G12 Rik, RIKEN cDNA” value [3] was 0.55 fold and the “Fold change in expression: 2810417H13 Rik, RIKEN cDNA” value [3] was 0.48 fold. For the same compound, the “Fold change in expression: 4833427G06 Rik, RIKEN cDNA” value [3] was 3.70 fold, the “Fold change in expression: 6530401L14 Rik, RIKEN cDNA” value [3] was 0.39 fold and the “Fold change in expression: 9030617O03 Rik, RIKEN cDNA” value [3] was 2.40 fold. For the same compound, the “Fold change in expression: Anxa8, Annexin A8” value [3] was 2.50 fold, the “Fold change in expression: Asflb, ASF1 anti-silencing function 1 homolog B (Saccharomyces)” value [3] was 0.47 fold and the “Fold change in expression: Birc5, Baculoviral IAP repeat-containing 5” value [3] was 0.51 fold. For the same compound, the “Fold change in expression: Brca1, Breast cancer 1” value [3] was 0.47 fold, the “Fold change in expression: Calmbp1, Calmodulin binding protein 1” value [3] was 0.30 fold and the “Fold change in expression: Capn6, Calpain 6” value [3] was 0.60 fold. The “Fold change in expression: Ccna2, Cyclin A2” value [3] was 0.46 fold, the “Fold change in expression: Ccng1, Cyclin G1” value [3] was 2.40 fold and the “Fold change in expression: Cilp, Cartilage intermediate layer pro” value [3] was 0.57 fold. For the same compound, the “Fold change in expression: Cks2, CDC28 protein kinase regulatory subunit 2” value [3] was 0.59 fold, the “Fold change in expression: D4Ertd421e, DNA segment, Chr 4, ERATO Doi 421, expressed” value [3] was 0.44 fold and the “Fold change in expression: Dda3-pending, Differential display and activated by p53” value [3] was 3.70 fold. The “Fold change in expression: E2f7, E2F transcription factor 7” value [3] was 0.55 fold, the “Fold change in expression: E030024M05 Rik, RIKEN cDNA” value [3] was 2.00 fold and the “Fold change in expression: E130315B21 Rik, RIKEN cDNA” value [3] was 0.64 fold. For the same compound, the “Fold change in expression: Fbxo5, f-box only protein 31” value [3] was 0.42 fold, the “Fold change in expression: Foxm1, Forkhead box M1” value [3] was 0.41 fold and the “Fold change in expression: Gmnn, Geminin” value [3] was 0.54 fold. The “Fold change in expression: Gnpi, Glucosamine-6-phosphate deaminase” value [3] was 1.60 fold, the “Fold change in expression: Hmgb2, High mobility group box 2” value [3] was 0.56 fold and the “Fold change in expression: Hmgb3, High mobility group box 3” value [3] was 0.45 fold. For the same compound, the “Fold change in expression: Hmmr, Hyaluronan mediated motility receptor (RHAMM)” value [3] was 0.36 fold, the “Fold change in expression: Kifl1, Kinesin 11” value [3] was 0.43 fold and the “Fold change in expression: Lek1, Leucine, glutamic acid, lysine family 1 protein” value [3] was 0.36 fold. The “Fold change in expression: Ly6e, Lymphocyte antigen 6 complex, locus E” value [3] was 1.80 fold, the “Fold change in expression: M-phosph1, M-phase phosphoprotein” value [3] was 0.27 fold and the “Fold change in expression: MGC:32192, Mus musculus cDNA clone MGC: 32192 IMAGE: 5006129” value [3] was 0.46 fold. The “Fold change in expression: Mad2l1, MAD2 (mitotic arrest deficient, homolog)-like 1 (yeast)” value [3] was 0.43 fold, the “Fold change in expression: Mad3, Max dimerization protein 3” value [3] was 0.52 fold and the “Fold change in expression: Mcm3, Minichromosome maintenance deficient 3 (Saccharomyces)” value [3] was 0.56 fold. For the same compound, the “Fold change in expression: Mcmd4, Minichromosome maintenance deficient 4 homolog” value [3] was 0.57 fold, the “Fold change in expression: Mki67, Antigen identified by MAb Ki67” value [3] was 0.31 fold and the “Fold change in expression: Mmhead, Mus musculus 15 day embryo head cDNA clone” value [3] was 3.00 fold. For the same compound, the “Fold change in expression: Nos3, Nitric oxide synthase 3, endothelial cell” value [3] was 1.90 fold, the “Fold change in expression: Np95, Nuclear protein 95” value [3] was 0.41 fold and the “Fold change in expression: Nusap1, Nucleolar and spindle associated protein 1” value [3] was 0.48 fold. The “Fold change in expression: Osbp16, Oxysterol binding protein-like 6” value [3] was 2.20 fold, the “Fold change in expression: Pbk, PDZ binding kinase” value [3] was 0.46 fold and the “Fold change in expression: Pcna, Proliferating cell nuclear antigen” value [3] was 0.60 fold. The “Fold change in expression: Phex, Phosphate regulating neutral endopeptidase (X chromosome)” value [3] was 2.20 fold, the “Fold change in expression: Plf, Proliferin” value [3] was 2.60 fold and the “Fold change in expression: Pola1, DNA polymerase alpha 1, 180 kDa” value [3] was 0.37 fold. The “Fold change in expression: Prc1, Protein regulator of cytokinesis 1” value [3] was 0.44 fold, the “Fold change in expression: Prelp, Proline arginine-rich end leucine-rich repeat” value [3] was 0.19 fold and the “Fold change in expression: Prim1, DNA primase, p49 subunit” value [3] was 0.51 fold. The “Fold change in expression: Rad51ap1, RAD51-associated protein 1” value [3] was 0.45 fold, the “Fold change in expression: Rbl1, Retinoblastoma-like 1 (p107)” value [3] was 0.59 fold and the “Fold change in expression: Serpine1, Ser (or Cys) proteinase inhibitor, clade E, member 1” value [3] was 0.58 fold. The “Fold change in expression: Sesn2, Sestrin 2” value [3] was 5.30 fold, the “Fold change in expression: Shcbp1, Shc SH2-domain binding protein 1” value [3] was 0.37 fold and the “Fold change in expression: Slc19a2, Solute carrier family 19 (thiamine transporter), member 2” value [3] was 2.70 fold and 2.30 fold. The “Fold change in expression: Slc35a5, Solute carrier family 35, member A5” value [3] was 2.60 fold, the “Fold change in expression: Smc2l1, SMC2 structural maintenance of chromosomes 2-like 1” value [3] was 0.49 fold and the “Fold change in expression: Stk18, Serine/threonine kinase 18” value [3] was 0.49 fold. For the same compound, the “Fold change in expression: Tacc3, Transforming, acidic coiled-coil containing protein 3” value [3] was 0.48 fold, the “Fold change in expression: Tagln, Transgelin (smooth muscle 22 protein)” value [3] was 0.47 fold and the “Fold change in expression: Tk1, Thymidine kinase 1” value [3] was 0.46 fold. For the same compound, the “Fold change in expression: Top2a, Topoisomerase (DNA) II alpha” value [3] was 0.37 fold, the “Fold change in expression: Trp53inp1, Transformation related protein, 53 inducible nuclear protein 1” value [3] was 2.90 fold and the “Fold change in expression: Usp30, Ubiquitin specific protease 30” value [3] was 3.70 fold. The “Fold change in expression: Wig1, Wild-type p53-induced gene 1” value [3] was 2.40 fold and the “C2C12 cell differentiation into myotubes after genotoxin exposure” value [4] was “completely inhibited”.
